Columns and labels:
[1] = test system: 3T3-L1 mouse pre-adipocyte cells; experiment: Inhibition of lipid accumulation in differentiated adipocytes (Oil Red O); format: cell-based; details: 10 μg/ml; 3T3-L1 (Table III)
Method: The inhibition of fat accumulation in the treated cells was compared with the mock treated differentiated adipocytes and percentage inhibition was measured.
One hundred thousand 3T3-L1 […] pre-adipocyte cells in Dulbecco's Modified Eagles Medium (DMEM) containing 10% Fetal Bovine Serum (FBS) were taken into each well of a 24-well plate and incubated for 48 h at 37° C. and 5% CO2. The differentiation of pre-adipocyte cells was initiated in a differentiation medium containing 10 μg/ml insulin, 1.0 μM dexamethasone, and 0.5 mM isobutylmethylxanthine (IBMX) for 48 h. After this the medium was replaced by DMEM containing 10 μg/ml insulin and incubated for 3 days. Then the differentiating cells were treated 10 μg/ml of Sphaeranthus indicus ethyl acetate extract (LI/DD-II/054A/01) and 0.5 μg/ml of 7-hydroxyfrullanolide (LI054A01) and maintained in the medium for another 3-5 days. The cells incubated with 0.1% DMSO were considered as the vehicle control. After the incubation period, cells were washed with phosphate buffered saline (PBS) and fixed with 10% buffered formalin for 1 h at room temperature. One small aliquot of cell suspension was separated for cell counting in hemocytometer chamber. Fixed cells were stained with Oil Red O solution to measure the cellular neutral lipid accumulation. Briefly, cells were washed with PBS, fixed with 10% buffered formalin and stained with Oil Red O solution (0.5 g in 100 ml isopropanol) for 10 min. After removing the staining solution, the dye retained in the cells will be eluted into isopropanol and OD measured at 550 nm. The inhibition of fat accumulation in the treated cells was compared with the mock treated differentiated adipocytes. The treated and control cells were also analyzed and compared for inhibition of lipid accumulation visually under microscope and recorded digitally in suitable image capture system. The anti-adipogenic activities shown by Sphaeranthus Indicus ethyl acetate extract (LI/DD-II/054A/01) and LIO054A01 are summarized in the following table.

[2] = test system: 3T3-L1 pre-adipocyte cells; experiment: Pro-lipolytic activity in differentiated adipocytes (free glycerol release); format: cell-based, mouse; details: 3T3-L1 (Table IV)
Method: Similarly, the pro-lipolytic activity of the ethyl actate extract (LI/DD-II/054A/01) of Sphaeranthus indicus was assessed in differentiated/mature adipocytes using 3T3-L1 pre-adipocyte cells. The lipolytic activity was assessed in mature adipocytes by measuring free glycerol secreted into the culture medium as per the procedure of Adipolysis Assay Kit (Chemicon International, USA).
The lipolytic activity was assessed in mature adipocytes as per the procedure of Chemicon International, USA, by measuring free glycerol secreted into the culture medium. One hundred thousand 3T3-L1 […] pre-adipocyte cells in Dulbecco's Modified Eagles Medium (DMEM) containing 10% Fetal Bovine Serum (FBS) were taken into each well of a 24-well plate and incubated for 48 h at 37° C. and 5% CO2. The differentiation of pre-adipocyte cells was initiated in a differentiation medium containing 10 μg/ml insulin, 1.0 μM dexamethasone, and 0.5 mM isobutylmethylxanthine (IBMX). The cells were differentiated for 5 days and then the culture medium was removed. […] The samples and the controls were incubated for 15 min, and the absorbance was read at 540 nm. […]

[3] = target: α-amylase; experiment: α-Amylase inhibition (DNS method); format: biochemical; details: 1% soluble starch as substrate
Method: α-Amylase inhibitory activity was measured using the dinitrosalicylic acid (DNS) method developed by Bernfeld (Methods in Enzymology, 1955, Vol. 1, pp 149-158), improved by Jamieson et al (Journal of Dental Research 1969; 48(3): 483) and adopted for testing inhibitory potential of test substances by M. C. M da Silva et al (2004, Pesq. Agropec. bras., Brasilia, 2004; 39(3); pp 201-208) using 1% soluble starch as substrate.
The test substances (α-mangostin, γ-mangostin and AR 933) were pre-incubated with α-amylase 100 μL (10-25 U/mL) at room temperature for 20 minutes prior to the addition of 100 μL of the substrate solution followed by incubation at 37° C. for 10 minutes. The reactions were stopped by the addition of 200 μL of DNS reagent, followed by color development by placing the tubes in boiling water for 5 minutes. After addition of 3.6 mL distilled water, the absorbance was read at 470 nm. Known α-amylase inhibitor was used as positive control and vehicle was used as negative control. Assays were carried out at least in duplicate. Percentage inhibition will be calculated by comparing mean test OD with mean control OD. {% inhibition=[(COD−TOD)/COD]×100}. The IC50 values were calculated by linear regression analysis of the dose response curve.

[4] = target: α-glucosidase; experiment: α-Glucosidase inhibition (p-nitrophenyl α-D-glucopyranose); format: biochemical; details: pH 7, room temperature
Method: α-Glucosidase inhibitory activity was measured using the in vitro method developed by D. Prasanth et al., (Fitoterapia 2001, 72, 686-688). In a micro plate well was taken 50 μL of α-glucosidase enzyme (0.4 U/mL), and treated with 90 μL of 100 mM phosphate buffer (pH 7) and 10 μL test substances (α-mangostin, γ-mangostin and AR 933) or vehicle control. The contents were mixed well and the reaction mixtures were incubated at room temperature for 5 min, and then added 50 μL of p-nitrophenyl α-D-glucopyranose (20 mM) as substrate. The contents were mixed well and again incubated at room temperature for 15 min. The reaction was stopped by the addition of 30 μL of sodium carbonate solution (135 mM). The absorbance was measured at 405 nm using micro plate reader. Control and test blank ODs were obtained by replacing enzyme with buffer. Percentage inhibitions were calculated by comparing mean test OD with mean control OD. {% inhibition=[(COD−TOD)/COD]×100}. The IC50 values were calculated by linear regression analysis of the dose response curve.

CC(C)=CCc1c(O)cc2oc3cc(O)c(O)c(CC=C(C)C)c3c(=O)c2c1O [γ-mangostin]
% inhibition of Lipid accumulation 10 μg/ml [1]: 61.57% | % acceleration of lipolysis 25 μg/ml [2]: 4.52% | IC50 (μg/ml) for α-amylase [3]: 3.88 µg/mL | IC50 (μg/ml) for α-glucosidase [4]: 0.16 µg/mL

COc1c(O)cc2oc3cc(O)c(CC=C(C)C)c(O)c3c(=O)c2c1CC=C(C)C [α-mangostin]
% inhibition of Lipid accumulation 10 μg/ml [1]: 16.06% | % acceleration of lipolysis 25 μg/ml [2]: 156.56% | IC50 (μg/ml) for α-amylase [3]: 3.99 µg/mL | IC50 (μg/ml) for α-glucosidase [4]: 0.30 µg/mL

— patent US9241964B2, “Composition from Sphaeranthus indicus and Garcinia mangostana for the control of metabolic syndrome” (LAILA NUTRACEUTICALS, priority 2009, dated 2016)
